# Laboratory results taken from patent US20160015038A1, “TREATED CROP PLANTS OR PLANT FOOD PRODUCTS WITH DECREASED BACTERIAL VIABILITY AND METHODS AND APPARATUSES FOR MAKING THE SAME” (EP Technologies LLC, priority 2014, published 2016).
# Experiments:
# E. coli (ATCC 35150) = assay: E. coli viability on spinach leaves after plasma-activated mist exposure; assay type: cell-based; details: no plasma mist
# Description: E. coli (ATCC 35150) cultures were grown to stationary phase in tryptic soy broth (TSB; Difco, Becton Dickinson, Franklin Lakes, N.J.). Aliquots of the prepared cultures were mixed into a volume of sterile Milli-Q water (Millipore, Billerica, Mass.) that yields an overall bacterial inoculum percentage of 2%. Thirty microliter aliquots of the bacterial culture were used to spot inoculate regions on the leaf surface of each leaf sample. Cultures were air dried on the leaf samples for 1 hour.
# An Ultrasonic 360 humidifier (Safety 1st; Columbus, Ind.) was connected to plastic tubing and fed into a custom small-scale plasma generator. The plasma configuration consisted of two parallel brass plate electrodes that have an area of 40 mm×45 mm and thickness of 5 mm. Polyetherimide was used as the housing material for the electrodes. The upper electrode was connected to a high voltage power supply (1-20 kV) with operating parameters that can be adjusted while the lower electrode is grounded. The adjustable outlet of the setup released plasma-activated water mist onto inoculated leaves fixed 2 mm beneath the opening. Plasma-activated water mist was applied to the inoculated leaves at intervals from 15 seconds to 2 minutes. […]
# Bacterial viability was […]. […] Data was analyzed using GraphPad Prism and InStat graphical and statistical software (GraphPad Software, Inc., La Jolla, Calif.). […]
# S. aureus = S. aureus viability on spinach leaves after plasma-activated mist exposure; assay type: cell-based; details: no plasma mist
smiles,measurement,setting,value
O=CC=Cc1ccccc1 [cinnamaldehyde],log10 reduction of E. coli caused by additive alone,E. coli (ATCC 35150),< 0.4
same,log10 reduction of S. aureus caused by additive alone,S. aureus,less than 0.2
